{
  "source": "patent US12624068B2",
  "about": "“Exon skipping by peptide nucleic acid derivatives” (OliPass Corporation, priority 2016, dated 2026)",
  "key": {"HIF-1α mRNA": {"test_system": "HIF-1α mRNA", "test": "HIF-1α nested qPCR by SYBR Green in HeLa cells", "type": "cell-based, human", "settings": "3 hours", "method": "“HIF-ASO 2” was evaluated by nested qPCR for its ability to inhibit the expression of the full-length HIF-1α mRNA in HeLa cells as follows. [Cell Culture & ASO Treatment] HeLa cells grown in 60 mm culture dish containing 5 mL medium were treated with “ASO 2” at 0 (negative control), 10, 100 or 1,000 zM (2 culture dishes per each ASO concentration). [RNA Extraction] 3 hours after the ASO treatment, total RNA was extracted with “MiniBEST Universal RNA Extraction Kit” (Cat. Number 9767, Takara) according to the manufacturer's instructions. [cDNA Synthesis by One Step RT-PCR] […] NO: 37); HIF-exon 8_reverse: (5'→3') […] [Nested qPCR] […] NO: 39); HIF-exon 2n_reverse (5'→3') […] NO: 40); HIF-exon 3n_forward (5'→3') […] NO: 41); HIF-exon 3n_reverse (5'→3') […] NO: 42); HIF-exon 4n_forward (5'→3') […] NO: 43); HIF-exon 4n_reverse (5'→3') […] NO: 44); HIF-exon 5n_forward (5'→3') […] NO: 45); HIF-exon 5n_reverse (5'→3') […] NO: 46). […] “HIF-ASO 6” was evaluated for its ability to induce a change in HIF-1α mRNA in HeLa cells by nested qPCR according to the procedures in “HIF-1α Example 4” unless noted otherwise. [cDNA Synthesis by One Step RT-PCR] […] NO: 50); HIF-exon 8(2) reverse: (5'→3') […] “HIF-ASO 12” was evaluated by HIF-1α nested qPCR for its ability to induce a change in the HIF-1a mRNA in HeLa cells as described in “HIF-1a Example 3”, unless noted otherwise. HeLa cells were treated with “HIF-ASO 12” for 6 hours, and then subjected to total RNA extraction."}, "human SCN9A pre-mRNA": {"test_system": "human SCN9A pre-mRNA", "test": "SCN9A nested PCR for exon skipping in PC3 cells", "type": "cell-based", "method": "Given that PC3 cells are known to abundantly express the human SCN9A pre-mRNA [Br. J. Pharmacol. vol 156, 420-431 (2009)], “SCN-ASO 7” was evaluated by SCN9A nested PCR for its ability to induce the skipping of exon 4 in the human SCN9A pre-mRNA in PC3 cells as follows. [Cell Culture & ASO Treatment] PC3 cells (Cat. No. CRL-1435, ATCC) were maintained in Ham's F-12K medium supplemented with 10% FBS, 1% streptomycin/penicillin, 1% L-glutamine, and 1% sodium pyruvate under 5% CO2 atmosphere at 37° C. PC3 cells grown in 60 mm culture dish containing 5 mL medium were treated with “SCN-ASO 7” at 0 (negative control), 10, 100 or 1,000 zM. [RNA Extraction] Following an 18 hour incubation, the PC3 cells were treated with 100 μg/mL cycloheximide for another 6 hours in order to freeze the ribosomal translation. Then total RNA was extracted from cells using “Universal RNA Extraction Kit” (Cat. Number 9767, Takara) according to the manufacturer's instructions. [cDNA Synthesis by One Step RT-PCR] 200 ng of RNA template was used for a 25 μL reverse transcription reaction using Super Script® One-Step RT-PCR kit with Platinum® Taq polymerase (Cat. Number 10928-042, Invitrogen) and a set of exon-specific primers [SCN-exon 2_forward: (5'→3') […] NO: 74), and SCN-exon 9_reverse: (5'→3') […] [Nested PCR Amplification] 1 μL of cDNA solution (diluted by 100×) was subjected to a 20 μl PCR amplification by nested PCR (Cat. Number K2612, Bioneer) against a set of exon-specific primers [SCN-exon 3n_forward: (5'→3') […] NO: 76); and SCN-exon 8_reverse: (5'→3') […] Thus “SCN-exon 3n_forward” recognizes “the junction of exon 3 and exon 5” more selectively than “the junction of exon 3 and exon 4” found in the full length SCN9A mRNA. The primer sequence was designed to detect SCN9A splice variants lacking exon 4 more sensitively than the full length SCN9A mRNA. Such an exon skipping primer would be useful to detect mRNA splice variants having poor metabolic stability, since the full-length mRNA tends to show good metabolic stability gained through the evolution over billions years. [Identification of Exon Skipping Products] The nested PCR products were subjected to electrophoretic separation on a 2% agarose gel. The bands of target size were collected and analyzed by Sanger sequencing. […] “SCN-ASO 27” was evaluated for its ability to induce the skipping of “exon 4” in PC3 cells as described in “SCN9A Example 1”, unless noted otherwise. [Cell Culture & ASO Treatment] PC3 cells grown in 60 mm culture dish containing 5 mL culture medium were treated with “SCN-ASO 27” at 0 (negative control), 1, 10 or 100 zM. [Nested PCR Amplification] […] NO: 89); and SCN-exon 9n_reverse: (5'→3') […] “SCN-ASO 27” was evaluated for its ability to induce the skipping of “exon 4” in PC3 cells as described in “SCN9A Example 8”, unless noted otherwise. In this experiment, PC3 cells were treated with “SCN-ASO 27” at 0 (negative control), 1, 10, 100 and 1,000 aM for 24 hours. [Nested PCR Amplification] The nested PCR reaction was carried out against a set of primers of [SCN-exon 3/6_forward: (5'→3') […] NO: 91); and SCN-exon 9n_reverse: (5'→3') […]"}, "10-mer complementary DNA": {"test_system": "10-mer complementary DNA", "test": "Tm between PNA derivatives and 10-mer complementary DNA (N- or C-terminal)", "type": "binding", "settings": "uncorrected", "method_in_brief": "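Tm read by UV at 260 nm for duplexes formed by annealing (90 °C for a minute, slow cooling to ambient) of equimolar 4 μM PNA and complementary 10-mer DNA targeting N- or C-terminal, in 10 mM sodium phosphate, 100 mM NaCl, pH 7.16.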"}},
  "note": "{Fethoc} = N-terminal Fethoc cap; [C(1O2)] = modified PNA monomer acting as cytosine, C(pOq) type, 1O2; [A(5)] = modified PNA monomer acting as adenine, A(p) type, p=5; [A(6)] = modified PNA monomer acting as adenine, A(p) type, p=6; [G(5)] = modified PNA monomer acting as guanine, G(p) type, p=5; [G(6)] = modified PNA monomer acting as guanine, G(p) type, p=6; {NH2} = C-terminal amide",
  "data": [
    {"substance": "Fethoc-A(6)GA-A(6)CT-TA(6)T-CC(1O2)T-A(6)CT-TA(6)-NH2 (AGAACTTATCCTACTTA; splice-switching; all peptide nucleic acid (PNA), [A(6)] at 1, 4, 8, 13, 17, [C(1O2)] at 11, 5' {Fethoc}, 3' {NH2}; peptide nucleic acid backbone) [HIF-ASO 6]", "values": [
      {"measurement": "decrease of individual HIF-1α exon levels (SYBR Green)", "setting": "HIF-1α mRNA; HeLa cells, 10 zM", "value": 35, "unit": "%"},
      {"measurement": "decrease of individual HIF-1α exon levels (SYBR Green)", "setting": "HIF-1α mRNA; HeLa cells, 100 zM", "value": "~30", "unit": "%"},
      {"measurement": "decrease of individual HIF-1α exon levels (SYBR Green)", "setting": "HIF-1α mRNA; HeLa cells, 1,000 zM (1 aM)", "value": "~45", "unit": "%"}
    ]},
    {"substance": "Fethoc-AA(5)G-TG(5)T-A(5)CC(1O2)-TA(5)A-A(5)C-NH2 (AAGTGTACCTAAAC; splice-switching; all peptide nucleic acid (PNA), [A(5)] at 2, 7, 11, 13, [G(5)] at 5, [C(1O2)] at 9, 5' {Fethoc}, 3' {NH2}; peptide nucleic acid written N to C) [SCN-ASO 27]", "values": [
      {"measurement": "SCN9A exon skipping by nested PCR (exon 3/6 junction primer)", "setting": "human SCN9A pre-mRNA; PC3 cells, 1, 10, 100 and 1,000 aM, 24 hours", "value": "yielded a strong PCR band assignable to the skipping of exons 4-5"},
      {"measurement": "SCN9A exon skipping by nested PCR", "setting": "human SCN9A pre-mRNA; PC3 cells, 1, 10 or 100 zM", "value": "yielded a strong PCR band assignable to the skipping of exons 4-5"},
      {"measurement": "PCR band intensity for the full-length SCN9A mRNA", "setting": "human SCN9A pre-mRNA; PC3 cells, 10 zM and 100 zM", "value": "stronger in treatment samples of 10 zM and 100 zM ASO than in the samples of the negative control"},
      {"measurement": "Tm Value, 10-mer DNA against C-Terminal", "setting": "10-mer complementary DNA", "value": 69.0, "unit": "°C"},
      {"measurement": "Tm Value, 10-mer DNA against N-Terminal", "setting": "10-mer complementary DNA", "value": 77.0, "unit": "°C"}
    ]},
    {"substance": "Fethoc-AC(1O2)T-TA(5)C-G(6)CA-A(5)AA(5)-AC(1O2)A-A(5)-NH2 (ACTTACGCAAAAACAA; all peptide nucleic acid (PNA), [C(1O2)] at 2, 14, [A(5)] at 5, 10, 12, 16, [G(6)] at 7, 5' {Fethoc}, 3' {NH2}; peptide nucleic acid written N to C) [SCN-ASO 7]", "values": [
      {"measurement": "skipping of SCN9A exon 4 by nested PCR", "setting": "human SCN9A pre-mRNA; PC3 cells, 1 aM, 24 hours", "value": "conspicuously strong"},
      {"measurement": "skipping of SCN9A exon 4 by nested PCR", "setting": "human SCN9A pre-mRNA; PC3 cells, 10 and 100 zM, 24 hours", "value": "visible"},
      {"measurement": "Tm Value, 10-mer DNA against C-Terminal", "setting": "10-mer complementary DNA", "value": 64.6, "unit": "°C"},
      {"measurement": "Tm Value, 10-mer DNA against N-Terminal", "setting": "10-mer complementary DNA", "value": 65.0, "unit": "°C"}
    ]},
    {"substance": "Fethoc-GA(5)A-C(1O2)TT-A(5)TC-CTA(5)-C(1O2)T-NH2 (GAACTTATCCTACT; splice-switching; all peptide nucleic acid (PNA), [A(5)] at 2, 7, 12, [C(1O2)] at 4, 13, 5' {Fethoc}, 3' {NH2}; peptide nucleic acid backbone) [HIF-ASO 2]", "values": [
      {"measurement": "decrease of individual HIF-1α exon levels (SYBR Green)", "setting": "HIF-1α mRNA; HeLa cells, 1,000 zM (1 aM)", "value": "not different from the exon levels in the cells without ASO treatment"}
    ]}
  ]
}
